Experimental data taken from US20230356105A1, “TETRAAZADODECANE BASED CHELATING AGENTS FOR SEPARATION OF RARE EARTH ELEMENTS AND METHOD THEREFOR” (Ustav Organicke Chemie a Biochemie AV CR V.V.I., priority 2020, published 2023).
Where “and” joins values, the source holds several entries; their conditions need not be identical. Identical values can stand only once. Marks after values point to notes of the source that are not given here.

How the values were obtained:
Format in all cases: physicochemical
[1] = Separation of Gd/Lu mixture by repeated precipitation using L1 (Example 13); conditions: for Precipitate concentration [mM] Gd / Precipitate concentration [mM] Lu: dissolved to 200 μL
Description: Stock solutions were pipetted into round-bottom 2 mL Eppendorf tubes as follows: • 1. 10 μL 100 mM aqueous solution of GdCl3 • 2. 10 μL 100 mM aqueous solution of LuCl3 • 3. 20 μL 100 mM aqueous solution of compound • 4. 33.3 μL 3 M MOPS buffer pH=7. • 5. 127.6 μL water.
Nine identical reaction mixtures were prepared and split into three groups A, B, C. Each tube was equipped with one PTFE-coated magnetic stir bar and sealed, and the mixture was stirred on a magnetic stirrer for 24 hours at room temperature. The tubes were then centrifuged and the supernatants were carefully pipetted out and transferred to a new set of tubes. Precipitates from group A were dissolved by addition of 100 μL 1 M HCl at room temperature over the course of 30 mins and then diluted to 200 μL by the addition of 100 μL water. Concentrations of Gd and Lu in the supernatants and in re-dissolved precipitates from group A were determined by ICP-OES. Precipitates from groups B and C were further processed as follows: the precipitates were dissolved by addition of 100 μL 1 M HCl at room temperature at pH 0 over the course of 30 mins, and the pH was then adjusted to approximately 7 by the addition of 50 μL 2 M NaOH, and the overall volume adjusted to 200 μL by the addition of water. The prepared mixtures were subjected to a second round of precipitation and were stirred on a magnetic stirrer for 24 hours at room temperature. Then, the tubes were again centrifuged and supernatants were carefully pipetted out and transferred to a new set of tubes. Samples from group B were treated identically to the samples from group A previously, and the Gd and Lu content in the supernatants and precipitates was determined by ICP-OES. Precipitates from group C were subjected to a third cycle of precipitation and followed by Gd and Lu content determination analogously to the procedures described above.

[2] = Use of additives to improve separation of Nd/Dy mixture by precipitation with L5 (Example 18); conditions: no additive (0 mM); 11 mM L5
In short: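 Mixtures held 5 mM NdCl3, 5 mM DyCl3 and 500 mM MOPS pH 7 with L5, plus additives at variable concentration adjusted to pH 7. Stirred 18 h in sealed cuvettes, then centrifuged; precipitate redissolved in 1 M HCl. Nd and Dy measured in supernatant and precipitate by ICP-OES.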

[3] = Separation of Eu/Yb mixture by precipitation from water/acetonitrile solutions using L5 (Example 17); conditions: for Precipitate concentration [mM] Eu / Precipitate concentration [mM] Yb: dissolved to 100 μL
Description: 3 reaction mixtures, differing in acetonitrile content (group A=10%, group B=20%, group C=50%) were prepared in plastic round-bottom 2 mL Eppendorf tubes, each in duplicate. For group A, the stock solutions were pipetted as follows: 5 μL 100 mM aqueous solution of EuCl3; 5 μL 100 mM aqueous solution YbC13; 10 μL 100 mM aqueous solution of compound L5; 20 μL 3 M MOPS buffer pH=7; 50 μL water; 10 μL acetonitrile.
For group B, the stock solutions were pipetted as follows: 5 μL 100 mM aqueous solution of EuCl3; 5 μL 100 mM aqueous solution YbC13; 10 μL 100 mM aqueous solution of compound L5; 20 μL 3 M MOPS buffer pH=7; 40 μL water; 20 μL acetonitrile. For group C, the stock solutions were pipetted as follows: 5 μL 100 mM aqueous solution of EuCl3; 5 μL 100 mM aqueous solution YbC13; 10 μL 100 mM aqueous solution of compound L5; 20 μL 3 M MOPS buffer pH=7; 10 μL water; 50 μL acetonitrile.
Each tube was equipped with one PTFE-coated magnetic stir bar and sealed, and the mixture was stirred on a magnetic stirrer for 24 hours at room temperature. The tubes were then centrifuged and the supernatants were carefully pipetted out and transferred to a new set of tubes. To the precipitate was added 100 μL 1 M HCl and mixture was stirred until full dissolution (overnight at room temperature, pH=0). Concentrations of Eu and Yb in the supernatants and in the re-dissolved precipitates were determined by ICP-OES. The resulting absolute concentrations of both metals in the supernatants and precipitates, as well as calculated values of the separation factor Yb/Eu according to the formula from Example 11), are summarized in Table 11.

[4] = group A, 10% acetonitrile, mean of duplicates
[5] = group B, 20% acetonitrile, mean of duplicates
[6] = group C, 50% acetonitrile, mean of duplicates

In the case of `O=C(O)CN1CCN(CC(=O)O)CCN(Cc2ccccc2)CCN(CC(=O)O)CC1` [L1, 2,2′,2″-(10-benzyl-1,4,7,10-tetraazacyclododecane-1,4,7-triyl)triacetic Acid], the “Supernatant concentration [mM] Lu” value ([1]; group A, 1st precipitation) was 4.28 mM and 4.35 mM and 4.12 mM and 4.36 mM, the “Precipitate concentration [mM] Gd” value ([1]; group A, 1st precipitation) was 4.24 mM and 4.38 mM and 4.22 mM and 4.12 mM and the “Precipitate concentration [mM] Lu” value ([1]; group A, 1st precipitation) was 0.99 mM and 1.08 mM and 0.98 mM and 0.90 mM. The “Supernatant concentration [mM] Lu” value ([1]; group B, 2nd precipitation) was 0.80 mM and 0.83 mM and 0.77 mM, the “Precipitate concentration [mM] Gd” value ([1]; group B, 2nd precipitation) was 3.33 mM and 3.40 mM and 3.70 mM and 3.48 mM and the “Precipitate concentration [mM] Lu” value ([1]; group B, 2nd precipitation) was 0.23 mM and 0.21 mM and 0.22 mM (2×). For the same molecule, the “Supernatant concentration [mM] Lu” value ([1]; group C, 3rd precipitation) was 0.24** mM and 0.17 mM and 0.16 mM and 0.19 mM and the “Precipitate concentration [mM] Lu” value ([1]; group C, 3rd precipitation) was 0.05** mM and 0.07 mM and 0.06 mM.

For `O=C(O)CN1CCN(CC(=O)O)CCN(Cc2cccc3ccccc23)CCN(CC(=O)O)CC1` [L5, 2,2′,2″-(10-(naphthalene-1-ylmethyl)-1,4,7,10-tetraazacyklododekane-1,4,7-triyl)triacetic acid], the “Precipitate concentration [mM] Dy” value [2] was 4.60 mM, the “Precipitate concentration [mM] Nd” value [2] was 4.98 mM and the “Supernatant concentration [mM] Dy” value [2] was 0.37 mM. The “Supernatant concentration [mM] Nd” value [2] was 0.07 mM, the “Supernatant concentration [mM] Eu” value ([3]; group A, 10% acetonitrile) was 0.58 mM and 0.35 mM and the “Supernatant concentration [mM] Yb” value ([3]; group A, 10% acetonitrile) was 4.55 mM and 4.42 mM. For the same molecule, the “Precipitate concentration [mM] Eu” value ([3]; group A, 10% acetonitrile) was 2.78 mM and 2.98 mM, the “Precipitate concentration [mM] Yb” value ([3]; group A, 10% acetonitrile) was 0.29 mM and 0.36 mM and the “Precipitate concentration [mM] Eu” value [3, 4] was 2.88 mM. The “Precipitate concentration [mM] Yb” value [3, 4] was 0.32 mM, the “Supernatant concentration [mM] Eu” value [3, 4] was 0.47 mM and the “Supernatant concentration [mM] Yb” value [3, 4] was 4.48 mM. For the same molecule, the “Supernatant concentration [mM] Eu” value ([3]; group B, 20% acetonitrile) was 0.45 mM and 0.63 mM, the “Supernatant concentration [mM] Yb” value ([3]; group B, 20% acetonitrile) was 3.99 mM and 4.71 mM and the “Precipitate concentration [mM] Eu” value ([3]; group B, 20% acetonitrile) was 3.16 mM and 2.95 mM. For the same molecule, the “Precipitate concentration [mM] Yb” value ([3]; group B, 20% acetonitrile) was 0.38 mM and 0.41 mM, the “Precipitate concentration [mM] Eu” value [3, 5] was 3.06 mM and the “Precipitate concentration [mM] Yb” value [3, 5] was 0.40 mM. The “Supernatant concentration [mM] Eu” value [3, 5] was 0.54 mM, the “Supernatant concentration [mM] Yb” value [3, 5] was 4.35 mM and the “Supernatant concentration [mM] Eu” value ([3]; group C, 50% acetonitrile) was 1.51** mM and 0.79** mM. The “Supernatant concentration [mM] Yb” value ([3]; group C, 50% acetonitrile) was 6.29** mM and 5.77** mM, the “Precipitate concentration [mM] Eu” value ([3]; group C, 50% acetonitrile) was 3.22 mM and 3.90 mM and the “Precipitate concentration [mM] Yb” value ([3]; group C, 50% acetonitrile) was 0.42 mM and 0.37 mM. The “Precipitate concentration [mM] Eu” value [3, 6] was 3.56 mM, the “Precipitate concentration [mM] Yb” value [3, 6] was 0.39 mM and the “Supernatant concentration [mM] Eu” value [3, 6] was 1.15 mM. For the same molecule, the “Supernatant concentration [mM] Yb” value [3, 6] was 6.03 mM.
